Measured values: patent publication US12583851B2, “Heteroaryl-substituted pyrazine derivatives as pesticides” (Elanco Animal Health GmbH, priority 2019, dated 2026)

How the values were obtained:
Format in all cases: in vivo
[1] = system: Rhipicephalus (Boophilus) microplus larvae (strain Parkhurst, resistant against synthetic pyrethroids); assay: Rhipicephalus (Boophilus) microplus in-vitro contact test, larval cattle tick; conditions: after 48 hours, read-out: efficacy (larvae dead or moribund); for pest or weed control at 1 µg/cm2, 100 g/ha: 1 μg/cm^2 (=100 g/ha); for pest or weed control at 5 µg/cm2, 500 g/ha: 5 μg/cm^2 (=500 g/ha)
Procedure, shortened: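 Pyrethroid-resistant larvae (strain Parkhurst), 20–50 per tube, exposed by contact to a dried acetone film of compound (5 μg/cm² at 900 ppm) for 48 h at 27 °C and 85% humidity. Percent dead or moribund larvae scored from negative geotactic behaviour.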

[2] = system: green peach aphid (Myzus persicae); assay: Myzus persicae spray test; conditions: foliar, 120 h, Chinese cabbage leaf disks, after 5 days
Description: Myzus persicae—Spray Test
Solvent: 78.0 parts by weight acetone • 1.5 parts by weight dimethylformamide
(§1) Emulsifier: alkylarylpolyglycol ether
(§2) To produce a suitable preparation of active compound, 1 part by weight of active compound is mixed with the stated amount of solvents and is diluted with water, containing an emulsifier concentration of 1000 ppm, to the desired concentration. Further test concentrations are prepared by dilution with emulsifier containing water.
Chinese cabbage (Brassica pekinensis) leaf disks infected with all instars of the green peach aphid (Myzus persicae), are sprayed with a preparation of the active ingredient of the desired concentration.
After 5 days mortality in % is determined. 100% means all aphids have been killed and 0% means none of the aphids have been killed.

[3] = system: fall armyworm larvae (Spodoptera frugiperda); assay: Spodoptera frugiperda spray test; conditions: 168 h, maize leaf sections, after 7 days
Procedure, shortened: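 Percent larval kill read at day 7, from 0% (no caterpillars dead) to 100% (all dead). Larvae were placed on dried Zea mays leaf discs previously sprayed with test preparations made from an acetone/DMF solution diluted in 1000 ppm emulsifier-containing water.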

[4] = system: adult cat fleas (Ctenocephalides felis); assay: Ctenocephalides felis in-vitro contact test, adult cat flea; conditions: after 48 hours, read-out: efficacy (fleas dead or moribund); for pest or weed control at 1 µg/cm2, 100 g/ha: 1 μg/cm^2 (=100 g/ha); for pest or weed control at 5 µg/cm2, 500 g/ha: 5 μg/cm^2 (=500 g/ha)
Procedure, shortened: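 Acetone solution coated onto glass tube walls; 900 ppm gives 5 μg/cm². Once dry, 5–10 adult fleas per tube held at room temperature for 48 h. Efficacy (%) is the share of fleas dead or moribund, i.e. unable to climb away on a 45–50° C heating plate.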

[5] = system: larvae of the banded cucumber beetle (Diabrotica balteata); assay: Diabrotica balteata spray test; conditions: 168 h, after 7 days, read-out: efficacy (seedling growth); for pest or weed control at 6.4 µg/disc, 20 g/ha: 20 g/ha (=6.4 μg/well); for pest or weed control at 32 µg/disc, 100 g/ha: 100 g/ha (=32 μg/well)
Procedure, shortened: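 Efficacy was read 7 days after infesting each unit with 10–20 banded cucumber beetle larvae, as % of seedlings growing like untreated, uninfested controls. Before infestation, wheat seeds germinated 1 day on agar (5 per well) were sprayed with the active ingredient. The active was formulated in acetone/DMF and diluted in water containing emulsifier.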

[6] = system: southern root-knot nematode (Meloidogyne incognita); assay: Meloidogyne incognita test; conditions: 20 ppm, after 14 days
Description: Meloidogyne incognita—Test
Solvent: 125.0 parts by weight of acetone
To produce a suitable preparation of active compound, 1 part by weight of active compound is mixed with the stated amount of solvent, and the concentrate is diluted with water to the desired concentration.
Vessels are filled with sand, a solution of the active ingredient, a suspension containing eggs and larvae of the southern root-knot nematode (Meloidogyne incognita) and salad seeds. The salad seeds germinate and the seedlings grow. Galls develop in the roots.
After 14 days the nematicidal activity is determined based on the percentage of gall formation. 100% means no galls were found and 0% means the number of galls found on the roots of the treated plants was equal to that in untreated control plants.

[7] = system: adult brown dog ticks (Rhipicephalus sanguineus); assay: Rhipicephalus sanguineus in-vitro contact test, adult brown dog ticks; conditions: 48 h, after 48 hours, read-out: efficacy (ticks dead or moribund); for pest or weed control at 5 µg/cm2, 500 g/ha: 5 μg/cm^2 (=500 g/ha); for pest or weed control at 1 µg/cm2, 100 g/ha: 1 μg/cm^2 (=100 g/ha)
Procedure, shortened: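 Acetone solution coated on glass tube inner walls (900 ppm, giving 5 μg/cm^2); after drying, 5–10 adult ticks added and kept 48 h at room temperature. Efficacy scored as percent dead or moribund, i.e., ticks unable to climb away on a 45–50 °C heating plate within 5 min.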

[8] = system: brown planthopper (Nilaparvata lugens); assay: Nilaparvata lugens spray test; conditions: 96 h, 500 g/ha, rice plants, after 4 days
Description: Nilaparvata lugens—Spray Test
(§3) Solvent: 78.0 parts by weight of acetone • • 1.5 parts by weight of dimethylformamide
as §1, §2
Rice plants (Oryza sativa) are sprayed with a preparation of the active ingredient of the desired concentration and the plants are infested with the brown planthopper (Nilaparvata lugens).
After 4 days mortality in % is determined. 100% means all planthoppers have been killed and 0% means none of the planthoppers have been killed.

[9] = system: larvae of the southern green stink bug (Nezara viridula); assay: Nezara viridula spray test; conditions: 96 h, 500 g/ha, barley plants, after 4 days
Description: Nezara viridula—Spray Test
as §3, §1
as §2, with “solvent,” for “solvents”, “and the concentrate” for “and”
Barley plants (Hordeum vulgare) infested with larvae of the southern green stink bug (Nezara viridula) are sprayed with a test solution containing the desired concentration of the active ingredient.
After 4 days mortality in % is determined. 100% means all the stink bugs have been killed; 0% means none of the stink bugs have been killed.

SMILES | pest or weed control at 1 µg/cm2, 100 g/ha [1] [%] | pest or weed control at 5 µg/cm2, 500 g/ha [1] [%] | mortality at 100 g/ha [2] [%] | mortality at 100 g/ha [3] [%] | pest or weed control at 1 µg/cm2, 100 g/ha [4] [%] | pest or weed control at 6.4 µg/disc, 20 g/ha [5] [%] | pest or weed control at 32 µg/disc, 100 g/ha [5] [%] | nematicidal activity (based on gall formation) [6] [%] | pest or weed control at 5 µg/cm2, 500 g/ha [4] [%] | pest or weed control at 5 µg/cm2, 500 g/ha [7] [%] | mortality at 500 g/ha [8] [%] | mortality at 500 g/ha [9] [%] | pest or weed control at 1 µg/cm2, 100 g/ha [7] [%]
CC(NC(=O)c1cc(C(F)(F)F)cc(C(F)(F)F)c1)c1nccnc1-c1ccc(C(=O)N(C)C)cn1 (racemic) [Example I-38, (rac)-6-(3-{1-[3,5-Bis(trifluoromethyl)benzamido]ethyl}pyrazin-2-yl)-N,N-dimethylpyridine-3-carboxamide] | 100 | 100 | 90 | 100 | 90 |  |  |  |  |  |  |  | 
CC(NC(=O)c1cc(Cl)cc(OC(F)(F)F)c1)c1nccnc1-c1nccs1 (racemic) [Example I-52, (rac)-3-Chloro-N-{1-[3-(1,3-thiazol-2-yl)pyrazin-2-yl]ethyl}-5-(trifluoromethoxy)benzamide] |  |  |  |  |  | 100 | 100 | 90 |  |  |  |  | 
CC(NC(=O)c1cc(C(F)(F)F)cc(C(F)(F)F)c1)c1nccnc1-c1ncc(C#N)s1 (racemic) [Example I-82, (rac)-N-{1-[3-(5-Cyano-1,3-thiazol-2-yl)pyrazin-2-yl]ethyl}-3,5-bis(trifluoromethyl)benzamide] | 100 | 100 |  |  | 100 |  | 100 | 100 | 100 |  |  |  | 
CCN(C)C(=O)c1cnc(-c2nccnc2C(C)N(CC2CC2)C(=O)c2cc(C(F)(F)F)cc(C(F)(F)F)c2)s1 (racemic) [Example I-83, (rac)-2-{3-[1-{[3,5-Bis(trifluoromethyl)benzoyl](cyclopropylmethyl)amino}ethyl]pyrazin-2-yl}-N-ethyl-N-methyl-1,3-thiazole-5-carboxamide] | 100 | 100 |  | 100 | 100 | 100 | 100 |  | 100 | 80 | 100 | 100 | 
CC(NC(=O)c1cc(C(F)(F)F)cc(C(F)(F)F)c1)c1nccnc1-n1cc(C(=O)N(C)C)cn1 (racemic) [Example I-88, (rac)-1-(3-{1-[3,5-Bis(trifluoromethyl)benzamido]ethyl}pyrazin-2-yl)-N,N-dimethyl-1H-pyrazole-4-carboxamide] | 100 | 100 | 90 | 100 |  | 100 | 100 |  |  |  |  |  | 
CC(NC(=O)c1cc(Cl)cc(C(F)(F)F)c1)c1nccnc1-n1cc(C(=O)N(C)CC2CC2)cn1 (racemic) [Example I-132, (rac)-1-(3-{1-[3-Chloro-5-(trifluoromethyl)benzamido]ethyl}pyrazin-2-yl)-N-(cyclopropylmethyl)-N-methyl-1H-pyrazole-4-carboxamide] | 100 | 100 |  | 100 | 100 | 100 | 100 |  | 100 | 100 | 100 | 100 | 100
CC(NC(=O)c1cc(Br)cc(OC(F)(F)F)c1)c1nccnc1-n1cc(C(=O)N(C)CC2CC2)cn1 (racemic) [Example I-134, (rac)-1-(3-{1-[3-Bromo-5-(trifluoromethoxy)benzamido]ethyl}pyrazin-2-yl)-N-(cyclopropylmethyl)-N-methyl-1H-pyrazole-4-carboxamide] | 100 | 100 |  | 100 | 80 | 100 | 100 |  | 100 | 100 | 100 | 100 | 100
CC(NC(=O)c1cc(OC(F)(F)F)cc(S(C)(=O)=O)c1)c1nccnc1-c1ncc(C(=O)N(C)CC2CC2)s1 (racemic) [Example I-140, (rac)-N-(Cyclopropylmethyl)-2-(3-{1-[3-(methanesulfonyl)-5-(trifluoromethoxy)benzamido]ethyl}pyrazin-2-yl)-N-methyl-1,3-thiazole-5-carboxamide] |  |  |  | 100 |  |  |  |  | 90 |  | 100 |  | 
CC(NC(=O)c1cc(C(F)F)cc(C(F)F)c1)c1nccnc1-c1ncc(C(=O)N(C)CC2CC2)s1 (racemic) [Example I-141, (rac)-2-(3-{1-[3,5-Bis(difluoromethyl)benzamido]ethyl}pyrazin-2-yl)-N-(cyclopropylmethyl)-N-methyl-1,3-thiazole-5-carboxamide] | 100 | 90 |  | 100 |  |  | 100 |  | 100 |  | 100 | 100 | 
CCN(CC)C(=O)c1ccc(-c2nccnc2C(C)NC(=O)c2cc(C(F)(F)F)cc(C(F)(F)F)c2)nc1 (single isomer, unassigned) [Example I-160, 6-(3-{1-[3,5-Bis(trifluoromethyl)benzamido]ethyl}pyrazin-2-yl)-N,N-diethylpyridine-3-carboxamide] |  |  | 90 | 100 |  |  |  |  |  |  |  |  | 
CC(NC(=O)c1cc(C(F)(F)F)cc(C(F)(F)F)c1)c1nccnc1-c1ccc(C(=O)N(C)CC2CC2)cn1 (single isomer, unassigned) [Example I-164, 6-(3-{1-[3,5-Bis(trifluoromethyl)benzamido]ethyl}pyrazin-2-yl)-N-(cyclopropylmethyl)-N-methylpyridine-3-carboxamide] |  |  | 90 | 100 |  |  |  |  |  |  |  |  | 
CC(NC(=O)c1cc(C(F)(F)F)cc(C(F)(F)F)c1)c1nccnc1-c1ccc(C(=O)N2C[C@@H](C)O[C@@H](C)C2)cn1 (single isomer, unassigned) [Example I-166, N-[1-(3-{5-[(cis)-2,6-Dimethylmorpholine-4-carbonyl]pyridin-2-yl}pyrazin-2-yl)ethyl]-3,5-bis(trifluoromethyl)benzamide] |  |  | 90 | 100 |  |  |  |  |  |  |  |  | 
